Results from patent US6201006A, “Aromatic amidine derivatives useful as selective thrombin inhibitors” (C & C Research Laboratories, priority 1996, dated 2001).

Target: T1, human thrombin (Homo sapiens, UniProt P00734)
T1 construct: purchased Sigma T-6759
Test: Inhibitory activity for thrombin (chromogenic substrate hydrolysis, 405 nm)
Assay type: biochemical
Details: for Selectivity (trypsin/thrombin): IC50 for trypsin divided by IC50 for thrombin; for IC50: human thrombin, 20 min, pH 8.0, N-benzoyl-Phe-Val-Arg-p-nitroanilide
Description: 20 μl of each compound of the present invention was dissolved in 50% methanol in various concentrations and then added to each well of a microplate, to each of which 160 μl of the reaction medium containing 125 mM NaCl, 50 mM Tris-HCl (pH 8.0) and 2 mM synthetic substrate (N-benzoyl-Phe-Val-Arg-p-nitroanilide, Sigma B-7632) were added. 20 μl of human thrombin solution (5 units/ml, Sigma T-6759, manufactured by Sigma Co.) containing 0.1% bovine serum albumin was added to each well to initiate the enzymatic reaction. After 20 minutes, the hydrolysis of substrate was determined by measuring the absorbance at 405 nm. […] The selectivity index was calculated by dividing the IC50 value for trypsin by the IC50 value for thrombin. The thrombin inhibitory activity and the trypsin inhibitory activity for the compound of the present invention are shown in the following Table 2.

| SMILES | Selectivity (trypsin/thrombin) | IC50 [nM] |
| --- | --- | --- |
| CCOC(=O)C(c1ccccc1)N1CCC[C@@H]1C(=O)N1CCC[C@H]1CCc1cc2ccc(C(=N)N)cc2n1CC (stereo partly drawn) [Compound 112, ethyl-2-[(R)-2-[[(S)-2-[2-(6-amidino-1-ethylindol-2-yl)ethyl]pyrrolidinyl]carbonyl]pyrrolidinyl]-2-phenylacetate] | – | 29.2 |
| Cn1c(CC[C@@H]2CCCN2Cc2c(C(N)=O)sc3ccccc23)cc2ccc(C(=N)N)cc21 [Compound 9] | – | 33.9 |
| CCOC(=O)CC(NC1CC1)C(=O)N1CCC[C@H]1CCc1cc2ccc(C(=N)N)cc2n1CC (stereo partly drawn) [Compound 72, ethyl 4-[(S)-2-[2-(6-amidino-1-ethylindol-2-yl)ethyl]pyrrolidinyl]-3-cyclopropylamino-4-oxobutanoate] | 13.6 | 9.4 |
| CCn1c(CC[C@@H]2CCCN2C(=O)[C@H]2CCCN2)cc2ccc(C(=N)N)cc21 [Compound 83] | – | 30.9 |
| CCOC(=O)C(C)N1CCC[C@@H]1C(=O)N1CCC[C@H]1CCc1cc2ccc(C(=N)N)cc2n1CC (stereo partly drawn) [Compound 109, ethyl-2-[(R)-2-[[(S)-2-[2-(6-amidino-1-ethylindol-2-yl)ethyl]pyrrolidinyl]carbonyl]pyrrolidinyl]propionate] | – | 31.9 |
| CCn1c(CC[C@@H]2CCCN2C(=O)[C@H](NCC(=O)O)c2ccccc2)cc2ccc(C(=N)N)cc21 [Compound 40, 2-[[(R)-2-[2-(S)-2-[2-(6-amidino-1-ethylindol-2-yl)ethyl]pyrrolidinyl]-2-oxo-1-phenylethyl]amino]acetic acid] | – | 7.95 |
| CCn1c(CC[C@@H]2CCCN2C(=O)CC2CCCC2)cc2ccc(C(=N)N)cc21 [Compound 43, 1ethyl-2-[2-[(S)-1-(2-cyclopentylacetyl)pyrrolidin-2-yl]ethyl]indole-6-carboxamidine] | 40.3 | 9.96 |
| CCn1c(CC[C@@H]2CCCN2C(=O)C(C)N(CC(=O)O)C2CC2)cc2ccc(C(=N)N)cc21 (stereo partly drawn) [Compound 65, 2-[[2-[(S)-2-[2-(6-amidino-1-ethylindol-2-yl)ethyl]pyrrolidinyl]-1-methyl-2-oxoethyl]cyclopylamino]acetic acid] | – | 22.1 |
| CCn1c(CC[C@@H]2CCCN2C(=O)[C@H](NCC(N)=O)c2ccccc2)cc2ccc(C(=N)N)cc21 [Compound 39, 1ethyl-2-[2-[(S)-1-[(R)-2-(carbamoylmethylamino)-2-phenylacetyl]pyrrolidin-2-yl]ethyl]indole-6-carboxamidine] | – | 6.91 |
| CCn1c(CC[C@@H]2CCCN2C(=O)CNC2CC2)cc2ccc(C(=N)N)cc21 [Compound 57, 1-ethyl-2-[2-[(S)-1-(2-cyclopropylaminoacetyl)pyrrolidin-2-yl]ethyl]indole-6-carboxamidine] | – | 7.73 |
| CCn1c(CC[C@@H]2CCCN2C(=O)CC2CCCCC2)cc2ccc(C(=N)N)cc21 [Compound 46, 1ethyl-2-[2-[(S)-1-(2-cyclohexylacetyl)pyrrolidin-2-yl]ethyl]indole-6-carboxamidine] | – | 28.9 |
| CCn1c(CC[C@@H]2CCCN2C(=O)Cc2ccccc2C(=O)O)cc2ccc(C(=N)N)cc21 [Compound 24, 2-[2-[(S)-2-[2-(6-amidino-1-ethylindol-2-yl)ethyl]pyrrolidinyl]-2-oxoethyl]benzoic acid] | 83.6 | 8.45 |
| CCn1c(CC[C@@H]2CCCN2C(=O)[C@H](NS(C)(=O)=O)c2ccccc2)cc2ccc(C(=N)N)cc21 [Compound 37, 1ethyl-2-[2-[(S)-1-((R)-2-methylsulfonylamino-2-phenylacetyl)pyrrolidin-2-yl]ethyl]indole-6-carboxamidine] | – | 5.4 |
| CCOC(=O)CN(C1CC1)C(C)C(=O)N1CCC[C@H]1CCc1cc2ccc(C(=N)N)cc2n1CC (stereo partly drawn) [Compound 64, ethyl 2-[[2-[(S)-2-[2-(6-amidino-1-ethylindol-2-yl)ethyl]pyrrolidinyl]-1-methyl-2-oxoethyl]cyclo-propylamino]acetate] | 22.9 | 15.2 |

Next, values leading:

| Selectivity (trypsin/thrombin) | IC50 [nM] | SMILES |
| --- | --- | --- |
| 20.7 | 21.7 | CCOC(=O)CCC(=O)N1CCC[C@@H]1C(=O)N1CCC[C@H]1CCc1cc2ccc(C(=N)N)cc2n1CC [Compound 176, ethyl 4-[(R)-2-[[(S)-2-[2-(6-amidino-1-ethylindol-2-yl)ethyl]pyrrolidinyl]carbonyl]pyrrolidinyl]-4-oxobutanoate] |
| 25.7 | 16.2 | CCOC(=O)CC(=O)N1CCC[C@@H]1C(=O)N1CCC[C@H]1CCc1cc2ccc(C(=N)N)cc2n1CC [Compound 174, ethyl 3-[(R)-2-[[(S)-2-[2-(6-amidino-1-ethylindol-2-yl)ethyl]pyrrolidinyl]carbonyl]pyrrolidinyl]-3-oxopropanoate] |
| – | 32.9 | CCn1c(CCC2CCCN2C(=O)C2CCCN2C(CC(=O)O)C(=O)O)cc2ccc(C(=N)N)cc21 [Compound 123, 1-[(R)-2-[[(S)-2-[2-(6-amidino-1-ethyl-indol-2-yl)ethyl]pyrrolidinyl]carbonyl]pyrrolidinyl]ethane-1,2-dicarboxylic acid] |
| – | 28.6 | CCn1c(CC[C@@H]2CCCN2C(=O)[C@H]2CCCN2C(=O)C(C)CN)cc2ccc(C(=N)N)cc21 (stereo partly drawn) [Compound 156, 1-ethyl-2-[2-[(S)-1-[[(R)-1-(3-amino-2-methylpropanoyl)pyrrolidin-2-yl]carbonyl]pyrrolidin-2-yl]ethyl]indole-6-carboxamidine] |
| 10.6 | 13.1 | CCn1c(CC[C@@H]2CCCN2C(=O)[C@H]2CCCN2CCCCC(=O)O)cc2ccc(C(=N)N)cc21 [Compound 129, 5-[(R)-2-[[(S)-2-[2-(6-amidino-1-ethylindol-2-yl)-ethyl]pyrrolidinyl]carbonyl]pyrrolidinyl]pentanoic acid] |
| 27.4 | 31.7 | CCOC(=O)[C@H](C)NC(=O)CN1CCC[C@@H]1C(=O)N1CCC[C@H]1CCc1cc2ccc(C(=N)N)cc2n1CC [Compound 116, ethyl (s)-2-[2-[(R)-2-[[(S)-2-[2-(6-amidino-1-ethylindol-2-yl)ethyl]pyrrolidinyl]carbonyl]pyrrolidinyl]-acetylamino]propanoate] |
| – | 33.8 | CCn1c(CC[C@@H]2CCCN2C(=O)C2CCCCN2CC(=O)OC)cc2ccc(C(=N)N)cc21 (stereo partly drawn) [Compound 192, methyl-2-[2-[[(S)-2-[2-(6-amidino-1-ethylindol-2-yl)ethyl]pyrrolidinyl]carbonyl]piperidinyl]acetate] |
| – | 31.8 | CCn1c(CC[C@@H]2CCCN2C(=O)[C@H]2CCCN2CC(=O)NC2CC2)cc2ccc(C(=N)N)cc21 [Compound 115, 1-ethyl-2-[2-[(S)-1-[[(R)-1-[(N-cyclopropylcarbamoyl)methyl]pyrrolidin-2-yl]carbonyl]pyrrolidin-2-yl]-ethyl]indole-6-carboxamidine] |
| 20.1 | 26.1 | CCn1c(CC[C@@H]2CCCN2C(=O)[C@H]2CCCN2C(=O)[C@@H](N)C(C)C)cc2ccc(C(=N)N)cc21 [Compound 145, 1-ethyl-2-[2-[(S)-1-[[(R)-1-((S)-2-amino-3-methylbutanoyl)pyrrolidin-2-yl]carbonyl]pyrrolidin-2-yl]-ethyl]indole-6-carboxamidine] |
| – | 31.6 | CCn1c(CC[C@@H]2CCCN2C(=O)[C@H]2CCCN2C(=O)C2CCCNC2)cc2ccc(C(=N)N)cc21 (stereo partly drawn) [Compound 168, 1-ethyl-2-[2-[(S)-1-[[(R)-1-(3-piperidinylcarbonyl)pyrrolidin-2-yl]carbonyl]pyrrolidin-2-yl]ethyl]indole-6-carboxamidine] |
| – | 36.5 | CCOC(=O)CCCCCN1CCC[C@@H]1C(=O)N1CCC[C@H]1CCc1cc2ccc(C(=N)N)cc2n1CC [Compound 130, ethyl 6-[(R)-2-[[(S)-2-[2-(6-amidino-1-ethylindol-2-yl)-ethyl]pyrrolidinyl]carbonyl]pyrrolidinyl]hexanoate] |
| 25.6 | 19.4 | CCn1c(CC[C@@H]2CCCN2C(=O)[C@H]2CCCN2C(=O)C[C@H](NS(C)(=O)=O)C(=O)O)cc2ccc(C(=N)N)cc21 [Compound 163, 4-[(R)-2-[[(S)-2-[2-(6-amidino-1-ethylindol-2-yl)ethyl]pyrrolidinyl]carbonyl]pyrrolidinyl]-(S)-2-[(methanesulfonyl)amino]-4-oxobutanoic acid] |
| – | 33.1 | CCn1c(CC[C@@H]2CCCN2C(=O)[C@H]2CCCN2C(=O)CNC)cc2ccc(C(=N)N)cc21 [Compound 142, 1-ethyl-2-[2-[(S)-1-[[(R)-1-[2-(methylamino)acetyl]pyrrolidin-2-yl]carbonyl]pyrrolidin-2-yl]ethyl]indole-6-carboxamidine] |
| – | 53.6 | N=C(N)c1ccc2cc(CC[C@H]3CCCN3C(=O)Cc3ccccc3)ccc2c1 [Compound 244, 6-[2-[(S)-1-(2-phenylacetyl)pyrrolidine-2-yl]ethyl]naphthalene-2-carboxamidine] |
| – | 25.5 | CCOC(=O)C[C@H](N)C(=O)N1CCC[C@@H]1C(=O)N1CCC[C@H]1CCc1cc2ccc(C(=N)N)cc2n1CC [Compound 147, ethyl 4-[(R)-2-[[(S)-2-[2-(6-amidino-1-ethylindol-2-yl)ethyl]pyrrolidinyl]carbonyl]pyrrolidinyl]-(S)-3-amino-4-oxobutanoate] |
| – | 5.5 | CCn1c(CC[C@@H]2CCCN2C(=O)[C@H]2CCCN2C(=O)CCNS(C)(=O)=O)cc2ccc(C(=N)N)cc21 [Compound 158, 1-ethyl-2-[2-[(S)-1-[[(R)-1-[3-[(methanesulfonyl)amino]propanoyl]pyrrolidin-2-yl]carbonyl]pyrrolidin-2-yl]ethyl]indole-6-carboxamidine] |
